In PMC4757768, “Mechanisms of amphetamine action illuminated through optical monitoring of dopamine synaptic vesicles in Drosophila brain” (Nature Communications, 2016):
pIC50: −log10 of the molar value.

Target: T1, VMAT2 (Rattus norvegicus, UniProt Q01827)
T1 construct: gene Slc18a2
Assay: inhibition of [3H]dopamine uptake in digitonin-treated HEK293 cells stably expressing rat VMAT2; binding Ki […] at mammalian VMAT2 also reported
Assay type: cell-based

T1 sequence (Q01827 whole entry): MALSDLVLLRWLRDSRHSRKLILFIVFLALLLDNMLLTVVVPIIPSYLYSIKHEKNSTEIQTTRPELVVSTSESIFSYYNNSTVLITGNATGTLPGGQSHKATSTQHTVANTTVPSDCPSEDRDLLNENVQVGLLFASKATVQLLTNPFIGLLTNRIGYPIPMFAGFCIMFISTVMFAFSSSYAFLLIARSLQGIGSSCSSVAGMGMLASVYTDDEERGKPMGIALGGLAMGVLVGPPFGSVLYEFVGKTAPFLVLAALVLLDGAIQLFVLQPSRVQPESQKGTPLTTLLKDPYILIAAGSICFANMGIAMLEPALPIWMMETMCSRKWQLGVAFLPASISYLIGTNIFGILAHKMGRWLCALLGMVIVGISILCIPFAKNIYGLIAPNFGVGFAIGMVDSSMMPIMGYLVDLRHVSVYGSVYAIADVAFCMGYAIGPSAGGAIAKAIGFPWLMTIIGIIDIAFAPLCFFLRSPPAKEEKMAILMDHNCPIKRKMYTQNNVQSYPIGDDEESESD

Structure (SMILES): COc1cc2c(cc1O)[C@H]1CC(=O)[C@H](CC(C)C)CN1CC2 [(+)-CYY477]
- pIC50: 7.59
